From the supplement of paper PMC10307832

Tests used:
Assay in all cases: relative viability (nuclei count vs DMSO), 5 days (fraction); higher = more cells survive
NCI-H1666 = test system: NCI-H1666
How it was run: (§1)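 After 5 days of treatment, lung cancer cells in 1536-well plates were fixed and stained in a single step (final 0.05% Triton X-100, 1% formaldehyde, 1 ug/ml Hoechst) and their nuclei counted on 4× images. Treatment had been applied by pin tool the day after seeding as one drug alone or as a fixed anchor-drug dose with five library-drug doses (not always all listed) in √10 steps. Relative viability is the nuclei count of treated wells divided by that of vehicle wells, and values are medians of duplicate plates.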

LCLC-97TM1 = test system: LCLC-97TM1
How it was run: as §1

CAL-12T = test system: CAL-12T
How it was run: as §1

NCI-H838 = test system: NCI-H838
How it was run: as §1

NCI-H1651 = test system: NCI-H1651
How it was run: as §1

NCI-H1395 = test system: NCI-H1395
How it was run: as §1

NCI-H1355 = test system: NCI-H1355
How it was run: as §1

NCI-H2085 = test system: NCI-H2085
How it was run: as §1

NCI-H2087 = test system: NCI-H2087
How it was run: as §1

NCI-H322M = test system: NCI-H322M
How it was run: as §1

NCI-H358 = test system: NCI-H358
How it was run: as §1

NCI-H1915 = test system: NCI-H1915
How it was run: as §1

SK-MES-1 = test system: SK-MES-1
How it was run: as §1

UMC-11 = test system: UMC-11
How it was run: as §1

NCI-H661 = test system: NCI-H661
How it was run: as §1

LK-2 = test system: LK-2
How it was run: as §1

PC-14 = test system: PC-14
How it was run: as §1

NCI-H2228 = test system: NCI-H2228
How it was run: as §1

H3255 = test system: H3255
How it was run: as §1

A-427 = test system: A-427
How it was run: as §1

ABC-1 = test system: ABC-1
How it was run: as §1

PC-3 [JPC-3] = test system: PC-3 [JPC-3]
How it was run: as §1

NCI-H1792 = test system: NCI-H1792
How it was run: as §1

`O=c1[nH]c2ccccc2n1C1CCN(CCCC(c2ccc(F)cc2)c2ccc(F)cc2)CC1` [Pimozide] + C[C@]1(O)C[C@@H](c2nc(-c3ccc4ccc(-c5ccccc5)nc4c3)c3c(N)nccn32)C1 [Linsitinib] (partner 1 µM) gave a relative viability (NCI-H1666; first compound 0.08 µM) of 0.786, a relative viability (NCI-H1666; first compound 0.253 µM) of 0.723 and a relative viability (NCI-H1666; first compound 0.8 µM) of 0.711. The relative viability (NCI-H1666; first compound 2.53 µM) was 0.73, the relative viability (NCI-H1666; first compound 8 µM) was 0.635 and the relative viability (LCLC-97TM1; first compound 0.08 µM) was 0.179. For the same molecule, the relative viability (LCLC-97TM1; first compound 0.253 µM) was 0.166, the relative viability (LCLC-97TM1; first compound 0.8 µM) was 0.171 and the relative viability (LCLC-97TM1; first compound 2.53 µM) was 0.169. The relative viability (LCLC-97TM1; first compound 8 µM) was 0.146, the relative viability (CAL-12T; first compound 0.08 µM) was 0.745 and the relative viability (CAL-12T; first compound 0.253 µM) was 0.803. For the same molecule, the relative viability (CAL-12T; first compound 0.8 µM) was 0.936, the relative viability (CAL-12T; first compound 2.53 µM) was 0.755 and the relative viability (CAL-12T; first compound 8 µM) was 0.788. The relative viability (NCI-H838; first compound 0.08 µM) was 1.01, the relative viability (NCI-H838; first compound 0.253 µM) was 0.999 and the relative viability (NCI-H838; first compound 0.8 µM) was 0.885. The relative viability (NCI-H838; first compound 2.53 µM) was 1.01, the relative viability (NCI-H838; first compound 8 µM) was 1.04 and the relative viability (NCI-H1651; first compound 0.08 µM) was 0.897. It also gave a relative viability (NCI-H1651; first compound 0.253 µM) of 1, a relative viability (NCI-H1651; first compound 0.8 µM) of 0.922 and a relative viability (NCI-H1651; first compound 2.53 µM) of 0.97. The relative viability (NCI-H1651; first compound 8 µM) was 0.951, the relative viability (NCI-H1395; first compound 0.08 µM) was 1.12 and the relative viability (NCI-H1395; first compound 0.253 µM) was 1.07. It also gave a relative viability (NCI-H1395; first compound 0.8 µM) of 1.07, a relative viability (NCI-H1395; first compound 2.53 µM) of 1.35 and a relative viability (NCI-H1395; first compound 8 µM) of 1.09. For the same molecule, the relative viability (NCI-H1355; first compound 0.08 µM) was 0.701, the relative viability (NCI-H1355; first compound 0.253 µM) was 0.804 and the relative viability (NCI-H1355; first compound 0.8 µM) was 0.758. It also gave a relative viability (NCI-H1355; first compound 2.53 µM) of 0.803, a relative viability (NCI-H1355; first compound 8 µM) of 0.762 and a relative viability (NCI-H2085; first compound 0.08 µM) of 0.916. For the same molecule, the relative viability (NCI-H2085; first compound 0.253 µM) was 0.934, the relative viability (NCI-H2085; first compound 0.8 µM) was 0.818 and the relative viability (NCI-H2085; first compound 2.53 µM) was 0.942. For the same molecule, the relative viability (NCI-H2085; first compound 8 µM) was 0.762, the relative viability (NCI-H2087; first compound 0.08 µM) was 0.904 and the relative viability (NCI-H2087; first compound 0.253 µM) was 0.869. The relative viability (NCI-H2087; first compound 0.8 µM) was 0.917, the relative viability (NCI-H2087; first compound 2.53 µM) was 1.04 and the relative viability (NCI-H2087; first compound 8 µM) was 0.96. The relative viability (NCI-H322M; first compound 0.253 µM) was 0.875, the relative viability (NCI-H322M; first compound 0.8 µM) was 0.79 and the relative viability (NCI-H322M; first compound 2.53 µM) was 0.834. The relative viability (NCI-H322M; first compound 8 µM) was 0.971, the relative viability (NCI-H358; first compound 0.08 µM) was 0.739 and the relative viability (NCI-H358; first compound 0.253 µM) was 0.852. For the same molecule, the relative viability (NCI-H358; first compound 0.8 µM) was 0.649, the relative viability (NCI-H358; first compound 2.53 µM) was 0.643 and the relative viability (NCI-H358; first compound 8 µM) was 0.693. It also gave a relative viability (NCI-H1915; first compound 0.08 µM) of 1.09, a relative viability (NCI-H1915; first compound 0.253 µM) of 1.06 and a relative viability (NCI-H1915; first compound 0.8 µM) of 0.921. The relative viability (NCI-H1915; first compound 2.53 µM) was 1.09, the relative viability (NCI-H1915; first compound 8 µM) was 1.1 and the relative viability (SK-MES-1; first compound 0.08 µM) was 0.993. The relative viability (SK-MES-1; first compound 0.253 µM) was 1.04, the relative viability (SK-MES-1; first compound 0.8 µM) was 1.07 and the relative viability (SK-MES-1; first compound 2.53 µM) was 1.11. For the same molecule, the relative viability (SK-MES-1; first compound 8 µM) was 1.09, the relative viability (UMC-11; first compound 0.08 µM) was 1.02 and the relative viability (UMC-11; first compound 0.253 µM) was 0.977. The relative viability (UMC-11; first compound 0.8 µM) was 1.05, the relative viability (UMC-11; first compound 2.53 µM) was 1.07 and the relative viability (UMC-11; first compound 8 µM) was 1.09. It also gave a relative viability (NCI-H661; first compound 0.08 µM) of 0.659, a relative viability (NCI-H661; first compound 0.253 µM) of 0.422 and a relative viability (NCI-H661; first compound 0.8 µM) of 0.557. The relative viability (NCI-H661; first compound 2.53 µM) was 0.513, the relative viability (NCI-H661; first compound 8 µM) was 0.536 and the relative viability (LK-2; first compound 0.08 µM) was 0.52. It also gave a relative viability (LK-2; first compound 0.253 µM) of 0.543, a relative viability (LK-2; first compound 0.8 µM) of 0.493 and a relative viability (LK-2; first compound 2.53 µM) of 0.37. For the same molecule, the relative viability (LK-2; first compound 8 µM) was 0.371, the relative viability (PC-14; first compound 0.253 µM) was 0.94 and the relative viability (PC-14; first compound 0.8 µM) was 0.99. The relative viability (PC-14; first compound 2.53 µM) was 0.938, the relative viability (PC-14; first compound 8 µM) was 0.91 and the relative viability (NCI-H2228; first compound 0.08 µM) was 0.475. The relative viability (NCI-H2228; first compound 0.253 µM) was 0.909, the relative viability (NCI-H2228; first compound 0.8 µM) was 0.404 and the relative viability (NCI-H2228; first compound 2.53 µM) was 0.392. It also gave a relative viability (NCI-H2228; first compound 8 µM) of 0.291, a relative viability (H3255; first compound 0.253 µM) of 0.905 and a relative viability (H3255; first compound 0.8 µM) of 0.96. The relative viability (H3255; first compound 2.53 µM) was 0.959, the relative viability (H3255; first compound 8 µM) was 0.903 and the relative viability (A-427; first compound 0.08 µM) was 0.985. For the same molecule, the relative viability (A-427; first compound 0.253 µM) was 1.14, the relative viability (A-427; first compound 0.8 µM) was 1.13 and the relative viability (A-427; first compound 2.53 µM) was 1.15. The relative viability (A-427; first compound 8 µM) was 1.08, the relative viability (ABC-1; first compound 0.08 µM) was 0.825 and the relative viability (ABC-1; first compound 0.253 µM) was 0.747. The relative viability (ABC-1; first compound 0.8 µM) was 0.788, the relative viability (ABC-1; first compound 2.53 µM) was 0.629 and the relative viability (ABC-1; first compound 8 µM) was 0.491. The relative viability (PC-3 [JPC-3]; first compound 0.253 µM) was 0.985, the relative viability (PC-3 [JPC-3]; first compound 0.8 µM) was 0.896 and the relative viability (PC-3 [JPC-3]; first compound 2.53 µM) was 0.983. It also gave a relative viability (PC-3 [JPC-3]; first compound 8 µM) of 0.883, a relative viability (NCI-H1792; first compound 0.08 µM) of 0.524 and a relative viability (NCI-H1792; first compound 0.253 µM) of 0.495. For the same molecule, the relative viability (NCI-H1792; first compound 0.8 µM) was 0.417, the relative viability (NCI-H1792; first compound 2.53 µM) was 0.444 and the relative viability (NCI-H1792; first compound 8 µM) was 0.571.
